{"source": "patent US20250177376A1", "about": "“ALPHA 2 ADRENERGIC RECEPTOR BLOCKADE FOR THE TREATMENT OF C. DIFFICILE COLITIS” (University of Virginia Patent Foundation, priority 2022, published 2025)", "key": {"[1]": {"test_system": "C. difficile infection (CDI)", "assay": "Mouse CDI model: survival, weight loss, clinical score", "format": "in vivo, mice", "settings": "for clinical score versus ORA-PLUS vehicle: oral gavage days -1, 0, 1, scores at days 2-8"}, "[2]": {"test_system": "cytokines", "assay": "Luminex 32-plex cytokine levels in cecal tissue of CDI mice", "settings": "IL-2, IL-4, IL-10, IL-12 (p40, p70), IL-15, MIP-1a, MIP-1b, LIX, VEGF, IL-5, GM-CSF, M-CSF, G-CSF, Eotaxin, IL-1b, IL-6, LIF, IP-10, KC, MCP-1, MIP2, MIG, IFNγ, IL-1a, IL-9, TNFa", "description": "The levels of numerous cytokines were tested in PBS-treated mice and mice administered 6-OHDA."}, "[3]": {"test_system": "eosinophils, neutrophils, monocytes", "assay": "Infiltrating colonic immune cells in CDI mice by flow cytometry", "settings": "for monocyte levels / neutrophil levels: 6-OHDA vs PBS/saline, desipramine vs 6-OHDA alone", "description": "To determine whether the sympathetic nervous system was necessary for a mounting of the inflammatory response, the infiltrating immune cell response in 6-OHDA-treated mice was measured by flow cytometry."}, "[4]": {"test_system": "C. difficile", "assay": "C. difficile counts (CFU) from cecal contents", "format": "in vivo", "settings": "cecal contents at 18 hours post-infection", "procedure": "C. difficile counts were quantified from cecal contents at 18 hours post-infection. Cecal contents were resuspended by mass in anaerobic PBS. […] Colony counts were made manually."}, "[5]": {"test_system": "C. difficile", "assay": "C. difficile colonization in cecal contents by GDH ELISA", "format": "in vivo", "settings": "cecal contents 2 days post-infection", "procedure": "CDI colonization levels were also determined in PBS-treated mice (negative control) and mice treated with RX 821002. Briefly, C. difficile colonization in cecal contents of mice sacrificed 2 days post-infection was determined by a GDH ELISA from […], Inc. (Blacksburg, Virginia, United States of America; Catalog No. TL5025). Prior to the ELISA, cecal contents were resuspended in PBS by mass. The GDH ELISA was performed according to the manufacturer's instructions."}, "[6]": {"test_system": "toxin A/B", "assay": "Toxin A/B ELISA of cecal contents", "format": "in vivo, C. difficile", "settings": "cecal contents 2 days post-infection", "procedure": "ADRA2A inhibition with RX 821002 was also tested for any affects on toxin A/B levels in mice. Briefly, […] in cecal contents of mice sacrificed 2 days post-infection was determined by a Toxin A/B ELISA from TECHLAB, Inc. (Catalog No. TL5025). Prior to the ELISA, cecal contents were resuspended in PBS by mass. The Toxin A/B ELISA was performed according to the manufacturer's instructions. Mice were treated with RX 821002 and toxin A/B levels in CDI cecal content were determined."}, "[7]": {"settings": "CDI mouse model, 6-OHDA 80 mg/kg i.p., propranolol, SR 59230A, RX 821002 10 mg/kg i.p., nepicastat oral gavage"}}, "note": "Several values for one entry are separate records, joined by “and”; a condition that tells them apart may be missing. Identical values can stand only once. Entries after “also recorded” stand apart in the source; their conditions may differ. Counter-ions that a name gives are not always drawn."}
{"smiles": "NCCc1cc(O)c(O)cc1O", "note": "[6-OHDA, 6-hydroxydopamine]", "values": [{"measurement": "effect on survival / CDI-induced mortality versus negative control", "setting": "[1]; mouse, in vivo", "value": "strikingly ameliorated the incidence of mortality; also recorded: complete protection from death"}, {"measurement": "mice still alive through day 5 post-infection", "setting": "[1]; mouse, in vivo", "value": 100, "unit": "%"}, {"measurement": "weight loss versus control", "setting": "[1]; mouse, in vivo", "value": "significantly (p<0.001) reduced; also recorded: strikingly ameliorated"}, {"measurement": "mice still alive at day 7 post-infection", "setting": "[1]; mouse, in vivo, ip, 80 mg/kg", "value": "90% and 80%"}, {"measurement": "cytokine levels versus PBS-treated mice", "setting": "[2]", "value": "statistically significantly reduced; also recorded: lower amounts of cytokines"}, {"measurement": "cytokine levels versus PBS-treated mice", "setting": "[2]; listed as 6-hydroxydopamine", "value": "block in pro-inflammatory cytokine response"}, {"measurement": "monocyte levels", "setting": "[3]", "value": "not significantly reduced"}, {"measurement": "neutrophil levels", "setting": "[3]", "value": "significantly reduced; also recorded: less representative of the colonic immune cells"}, {"measurement": "eosinophil levels", "setting": "[3]; vs PBS/Saline", "value": "did not reach statistical significance"}]}
{"smiles": "COC1(C2=NCCN2)COc2ccccc2O1", "note": "(centres unmarked) [RX 821002, 2-(3-methoxy-2H-1,4-benzodioxin-3-yl)-4,5-dihydro-1H-imidazole]", "values": [{"measurement": "effect on survival / CDI-induced mortality versus negative control", "setting": "[1]; [7]", "value": "statistically significant difference in percent survival; also recorded: drastically reduced; also recorded: ameliorated CDI induced mortality; also recorded: protection"}, {"measurement": "C. difficile burden, colony-forming units (CFU)/mg/ml, versus PBS", "setting": "[4]", "value": "no difference"}, {"measurement": "CDI colonization (GDH ELISA) versus PBS", "setting": "[5]", "value": "no effect"}, {"measurement": "toxin A/B levels in CDI cecal content", "setting": "[6]", "value": "reduced"}]}
{"smiles": "CCc1ccccc1OC[C@@H](O)CN[C@H]1CCCc2ccccc21", "note": "[SR 59230A, (2S)-1-(2-ethylphenoxy)-3-[[(1S)-1,2,3,4-tetrahydronaphthalen-1-yl]amino]propan-2-ol]", "values": [{"measurement": "effect on survival / CDI-induced mortality versus negative control", "setting": "[1]; [7]", "value": "increased the incidence of mortality; also recorded: exacerbated CDI disease progression"}, {"measurement": "mice dead prior to day 3 post-infection", "setting": "[1]; CDI mouse model, SR 59230A 10 mg/kg i.p.", "value": 100, "unit": "%"}]}
{"smiles": "CNCCCN1c2ccccc2CCc2ccccc21", "note": "[desipramine, 3-(10,11-dihydro-5H-dibenzo[b,f]azepin-5-yl)-N-methylpropan-1-amine]", "values": [{"measurement": "effect on survival / CDI-induced mortality versus negative control", "setting": "[1]; mouse, in vivo", "value": "prevented the protective effect of 6-OHDA on the incidence of mortality"}, {"measurement": "monocyte levels", "setting": "[3]", "value": "statistically significant elevation"}, {"measurement": "neutrophil levels", "setting": "[3]", "value": "negated this reduction"}]}
{"smiles": "NCc1c[nH]c(=S)n1[C@H]1CCc2c(F)cc(F)cc2C1", "note": "[nepicastat hydrochloride, 5-(Aminomethyl)-1-[(2S)-5,7-difluoro-1,2,3,4-tetrahydro-2-naphthalenyl]-1,3-dihydro-2H-imidazole-2-thione]", "values": [{"measurement": "effect on survival / CDI-induced mortality versus negative control", "setting": "[1]; [7]", "value": "protected against CDI-induced mortality; also recorded: significantly improved survival"}, {"measurement": "effect on survival / CDI-induced mortality versus negative control", "setting": "[1]; CDI mouse model, 6-OHDA 80 mg/kg i.p., propranolol, SR 59230A, RX 821002 10 mg/kg i.p., nepicastat oral gavage, listed as nepicastat", "value": "greatly reduced the incidence of mortality"}, {"measurement": "clinical score versus ORA-PLUS vehicle", "setting": "[1]; CDI mouse model", "value": "statistically significantly lower"}, {"measurement": "clinical score versus ORA-PLUS vehicle", "setting": "[1]; CDI mouse model, listed as Nepicastat", "value": "significantly better clinical scores"}]}
{"smiles": "COC(=O)[C@@H]1[C@H]2C[C@H]3c4[nH]c5ccccc5c4CCN3C[C@@H]2CC[C@@H]1O", "note": "[yohimbine, methyl(1S,15R,18S,19R,20S)-18-hydroxy-1,3,11,12,14,15,16,17,18,19,20,21-dodecahydroyohimban-19-carboxylate]", "values": [{"measurement": "effect on survival / CDI-induced mortality versus negative control", "setting": "[1]; [7]", "value": "statistically significant amelioration of CDI induced mortality"}]}
